“Also recorded” adds a separate entry of the source.
Tests used:
[1] = test system: survivin promoter in SW480 cells; test: Survivin luciferase reporter in SW480 cells; type: cell-based; details: for IC50: Homo sapiens, SW480, Table 10, prodrug compounds, reporter gene assay Survivin, read-out: RGA, Survivin IC50
[2] = test system: TCF4/β-catenin transcription (TOPFlash) in SW480 cells; test: Reporter gene assay (TOPFlash luciferase); type: cell-based; details: Homo sapiens, SW480, Table 10; prodrug compounds, reporter gene assay TopF; read-out: RGA, TopF IC50
How it was run: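 SW480 cells transiently co-transfected with TOPFlash and pRL-null (4:1 µg) using Superfect, then reseeded at 3×10^4 cells/well and incubated overnight at 37 °C. Compound treatment lasted 24 h before luciferase read-out.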

HCT116 cells [3] = test: Growth inhibition assay (MTS); type: cell-based; details: Homo sapiens, HCT-116; Table 10; prodrug compounds, HCT116 cells, growth inhibition; read-out: MTS, HCT116 (uM) GI50
How it was run: (§1)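 Cells seeded at 10^4 per well, grown 24 h at 37° C, then exposed to compound at various concentrations for 48 hours. MTS added for 2 h; absorbance at 490 nm gave viability, with cytotoxicity calculated per concentration against pre-treatment reading.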

SW480 cells [4] = test: Growth inhibition assay (MTS); type: cell-based; details: Homo sapiens; Table 10; prodrug compounds, SW480 cells, growth inhibition; read-out: MTS, SW480 (uM) GI50
How it was run: as §1

HCT116 cells [5] = test: MTS cytotoxicity test; type: cell-based; details: Homo sapiens, HCT-116, Table 10, prodrug compounds, 24 hours treatment, read-out: MTS, HCT116 (uM) LD50
Method: (§2) SW480 or HCT116 cells were placed into 96 well microplate (10^4cells/well) and incubated for 24 hours at 37° C. The cells were treated with TCF4 compound at various concentrations for 24 hours. 20 μl of MTS solution (Promega) was added into each well and incubated for 2 hours at 37° C. Cell viability was measured by reading the absorbance at 490 nm using microplate reader (Molecular Device) and cytotoxicity of a compound at each concentration was calculated.

SW480 cells [6] = test: MTS cytotoxicity test; type: cell-based; details: Homo sapiens, Table 10, prodrug compounds, 24 hours treatment, read-out: MTS, SW480 (uM) LD50
Method: as §2

SW480 cells [7] = test: Soft agar assay, Compound A with 5-FU; type: cell-based; details: for LD50, soft agar assay: 8 days
Method: Compound A solution and upper layer solution containing agarose were mixed, and SW480 cells were added and solidified. Plates were incubated 37° C. at CO2 incubator for 8 days after solidification at room temperature for 30 min, and colonies were counted under microscope (FIG. 19).

[8] = test system: min mice (polyp formed in small intestine and colon); test: Min mouse model; type: in vivo; details: about 300 mpk
Method: Selected compounds of the present invention (Compound B and Compound C) were evaluated in the min mouse model to evaluate their efficacy as anti-cancer agents.
The min mouse model is a widely used model to test for this type of efficacy. The numbers of polyp formed in small intestine and colon of these mice after various treatments were measured (Table 7).

HUVEC = test: Tube formation assay (In Vitro Angiogenesis Assay Kit); type: cell-based; details: 0.1-10 μM, 12 h
Method: Tube formation assay was performed using an In Vitro Angiogenesis Assay Kit (Chemicon International, Inc., Temecula, Calif., USA). Briefly, solid gels were prepared according to the manufacturer's manual on a 96-well tissue culture plate. HUVEC (1×10^5 cells/ml) in HuMedia EG-2 medium containing […] were seeded 100 μl per well onto the surface of the solid gel, ECMatrix™. The cells were incubated with vehicle control, Compound E at 0.1 μM, 0.3 μm, 1.0 μM, 3 μM, and 10 μM, or Fumagilin at 10 μM for 12 h at 37° C. in a CO2 incubator. Tube formation was observed under an inverted light microscope at ×100 magnification. Microscopic fields were photographed with a digital camera.

[9] = test system: S.D. rats with Mycobacterium butyricum-induced polyarthritis; test: Rat adjuvant-induced arthritis model; type: in vivo
Method: To induce polyarthritis, six-week-old male S.D. rats received intradermal injection (base of tail) of 100 μl of Mycobacterium butyricum (Cat. No. 264010, Difco) in mineral oil (5 mg/ml) on Day 0. The test compound, Compound F, was given once daily at Day 1, 2, 3, 4, 5, 8, 10, 12 and 14 by oral gavage. […] The paw thickness was measured with digital caliper (Mitutoyo, Japan) and the arthritic index was accessed (FIG. 21).

[10] = test system: NF-κB in stably transfected A549 cells; test: NF-κB reporter assay; type: cell-based; details: PMA 10 ng/ml, 6 hr
Method: Cells were transferred into each well of 96 well white opaque plates (1×10^4 cells/well/50 μl) and incubated 24 hr at 37° C. in 5% CO2 incubator. The test compound, Compound F, was added to each well, and 1 hr later, phorbol 12-myristate 13-acetate (PMA) (10 ng/ml) was added into each well. Plates were incubated further for 6 hr at 37° C. in 5% CO2 incubator. One hundred microliter of Dual-glo FireFly substrate (Promega) was added and incubated for 10 min. Luminescence of each well was measured with a luminometer (Victor II) (FIG. 23).

[11] = test system: IL-2 production in Jurkat cells; test: PMA/ionomycin-induced IL-2 production in Jurkat cells; type: cell-based; details: Homo sapiens, 6 hr
Method: PMA/lonomycin-induced IL-2 production in Jurkat cells: Jurkat cells were seeded into 96 well tissue culture plates (1×10^5 cells/well) and treated with the test compound, Compound F, and further incubated for 60 min at 37° C. in a CO2 incubator. Stimulant (10 ng/ml PMA and 1 μg/ml ionomycin) was added into each well, and the cells were further incubated for 6 hr at 37° C. in a CO2 incubator. Supernatant was collected and concentration of IL-2 was determined with the ELISA kit (OptEIA, BD).

[12] = test system: TNF-α in serum of ICR mice; test: Serum TNF-α induced by intraperitoneal LPS; type: in vivo, mouse; details: perorally 60 min prior to LPS, blood 90 min after
Method: Male young ICR mice received intraperitoneal injection of LPS (E. coli O111:B4). Compound F was administered perorally 60 min prior to LPS challenge and blood was drawn 90 min subsequent to challenge. Vehicle control mice received the pharmacological carrier used for Compound F only. Concentration of TNF-α in the serum was determined by ELISA method. […] For reference, dexamethasone (Dex, Sigma) was treated (15 mg/kg, oral).

[13] = test system: TNF-α production in THP-1 cells; test: LPS-induced TNF-α production in THP-1 cells; type: cell-based; details: Homo sapiens, LPS 100 ng/ml, 6 hr
Method: LPS-induced TNF-α production in THP-1 cells: THP-1 cells were incubated with 200 nM PMA for 24 hr. Cells were harvested with trypsin and seeded into 96 well tissue culture plates (2×10^4 cells/well). The test compound, Compound F, was added to each well followed by LPS (100 ng/ml). The cells were further incubated for 6 hr at 37° C. in a CO2 incubator. Media was collected and concentration of TNF-α was determined with the ELISA kit (OptEIA, BD).

SMILES | IC50 [1] [µM] | IC50 [2] [µM] | GI50 (HCT116 cells [3]) [µM] | GI50 (SW480 cells [4]) [µM] | IC50 (HCT116 cells [5]) [µM] | IC50 (SW480 cells [6]) [µM] | also measured
CN1CC(=O)N2[C@@H](Cc3ccc(OP(=O)(O)O)cc3)C(=O)N(Cc3ccc(F)cc3F)C[C@@H]2N1C(=O)NCc1ccccc1 [Compound 4] | 6.5 | 7.3 | 11.4 | 6.9 | 49.3 | > 50 | –
C=CCN1CC(=O)N2[C@@H](Cc3ccc(OP(=O)(O)O)cc3)C(=O)N(Cc3cccc4cccnc34)C[C@@H]2N1C(=O)NCc1ccccc1 [Compound 6] | 0.1 | 0.8 | 0.4 | 0.5 | 6.4 | 9.2 | –
C=CCN1CC(=O)N2[C@@H](Cc3ccc(OP(=O)(O)O)cc3)C(=O)N(Cc3ccc(Cl)c4cccnc34)C[C@@H]2N1C(=O)NCc1ccccc1 [Compound 7] | 1 | 2.3 | 1.8 | 2.2 | 12 | 12.9 | –
C=CCN1CC(=O)N2[C@@H](Cc3ccc(OP(=O)(O)O)cc3)C(=O)N(Cc3ccc(F)cc3F)C[C@@H]2N1C(=O)NCc1ccccc1 [Compound 8] | 0.9 | 1.4 | 1.9 | 2.1 | 23.2 | 21.6 | –
CN1CC(=O)N2[C@@H](Cc3ccc(OP(=O)(O)O)cc3)C(=O)N(Cc3cccc4cccnc34)C[C@@H]2N1C(=O)NCc1ccccc1 [Compound 9] | 6 | 9.6 | 14.7 | 7.6 | > 50 | > 50 | –
CCCN1CC(=O)N2[C@@H](Cc3ccc(OP(=O)(O)O)cc3)C(=O)N(Cc3cccc4cccnc34)C[C@@H]2N1C(=O)NCc1ccccc1 [Compound 10] | 1.7 | 2.8 | 0.8 | 0.9 | 7 | 0.4 | –
CN1CC(=O)N2[C@@H](Cc3ccc(OP(=O)(O)O)cc3)C(=O)N(Cc3ccc4ncsc4c3)C[C@@H]2N1C(=O)NCc1ccccc1 [Compound 11] | 6.7 | 10.3 | 6.3 | 6.5 | > 50 | > 50 | –
C=CCN1CC(=O)N2[C@@H](Cc3ccc(OP(=O)(O)O)cc3)C(=O)N(Cc3cccc4c3N(C)CCO4)C[C@@H]2N1C(=O)NCc1ccccc1 [Compound 12] | 0.7 | 1 | 1.2 | 1 | 19.3 | > 50 | –
CN(C)c1cc(CN2C[C@H]3N(C(=O)CN(C)N3C(=O)NCc3ccccc3)[C@@H](Cc3ccc(OP(=O)(O)O)cc3)C2=O)ccc1Cl [Compound 13] | 0.9 | 1.8 | 1.7 | 2.3 | 20 | 21.1 | –
CN(C)c1cc(F)c(F)cc1CN1C[C@H]2N(C(=O)CN(C)N2C(=O)NCc2ccccc2)[C@@H](Cc2ccc(OP(=O)(O)O)cc2)C1=O [Compound 14] | 1.2 | 1.7 | 2.1 | 2.3 | 16 | 21.1 | –
CN1CC(=O)N2[C@@H](Cc3ccc(O)cc3)C(=O)N(Cc3cccc4ccccc34)C[C@@H]2N1C(=O)NCc1ccccc1 [Compound A] | – | – | – | – | – | – | survivin luciferase reporter activity ([1]; SW480 cells, various concentrations): inhibit expression of survivin; also recorded: inhibit the activity of a survivin luciferase reporter; synergy with 5-FU in soft agar assay (SW480 cells [7]): synergism of anti-cancer activity; also recorded: synergy; LD50, soft agar assay (SW480 cells [7]; in combination with 0 μM 5-FU): 76 µM; LD50, soft agar assay (SW480 cells [7]; in combination with 1 μM 5-FU): 30 µM; LD50, soft agar assay (SW480 cells [7]; in combination with 4 μM 5-FU): 2 µM
CN1CC(=O)N2[C@@H](Cc3ccc(O)cc3)C(=O)N(Cc3cccc4cccnc34)C[C@@H]2N1C(=O)NCc1ccccc1 [Compound B] | – | – | – | – | – | – | number of polyp compared to vehicle control mice [8]: reduce the number of polyp in min mice
C=CCN1CC(=O)N2[C@@H](Cc3ccc(O)cc3)C(=O)N(Cc3ccccc3)C[C@@H]2N1C(=O)NCc1ccccc1 [Compound E] | – | – | – | – | – | – | tube formation (HUVEC): inhibited tube formation in a dose-dependent manner
CC(C)C[C@H]1C(=O)N(CCC(c2ccccc2)c2ccccc2)C[C@H]2N1C(=O)CN(C)N2C(=O)NCc1ccccc1 [Compound F] | – | – | – | – | – | – | increase of paw thickness ([9]; oral 30 mg/kg): significantly ameliorated the increase of paw thickness; increase of paw thickness ([9]; oral 100 mg/kg): significantly ameliorated the increase of paw thickness; NF-κB reporter activity [10]: effective in inhibiting NF-κB transcription; IC50 [11]: 8.48 µM; LPS-induced TNF-α in serum [12]: reduces LPS-induced TNF-α production in serum in a dose-dependent manner; IC50 [13]: 7.08 µM

— US7671054B1, “Reverse-turn mimetics and method relating thereto” (Choongwae Pharma Corporation, priority 2001, dated 2010)
